Measured values as given in US5164376A, “Method for treating retroviral infections with aryl-(2-pyrryl) keytone compound” (Hoffmann-LaRoche Inc., priority 1990, dated 1992).
Entries after “also recorded” stand apart in the source; their conditions may differ.

How the values were obtained:
[1] = test system: HIV; details: most patients; cited from earlier work
[2] = test system: COS cells; test: parallel cytotoxicity assay: SeAP gene expression under control of RSV-LTR (unresponsive to TAT) in COS cells; assay type: cell-based; details: values only in FIG. I
Protocol: At 24 hours post transfection 1, 10, and 100 μM of test compound was added to the culture media of COS cells transfected with two plasmids, one containing the reporter gene which codes for Secreted Alkaline Phosphatase (SeAP) under control of HIV-LTR, and other containing the TAT gene also under control of HIV-LTR. The alkaline phosphatase activity of the media was assayed 48 hours after addition of test compound. […] The anti-TAT activity is measured by the percent inhibition of SeAP gene expression under the control of HIV-LTR.

[3] = test system: HIV-1 NIT strain; test: inhibition of viral antigen production (percentage of cells stained with antibodies from AIDS patients); assay type: cell-based; details: CEM cells, MOI=1, 4 days; values only in FIG. II
Protocol: (§1) FIGS. II Illustrates the anti-HIV activity of Compound II when tested according to the protocol set forth in Example 2. The open bars and the hatch bars are live-cell counts of infected and uninfected cells respectively. The filled circles are percentage of cell which were stained with antibody from AIDS patients. The duration of treatment for compound II was 4 days.
(§2) High titer virus stocks (HIV-1 NIT strain) were grown in CD4^+ CR1O cells in RMPI-1640 media (Gibco Laboratories) supplemented with 10% fetal calf serum and 0.1 mg/ml Gentamicin. The collected media were filtered through a 0.8 Micron filter and virus isolates were concentrated 100 fold and stored at -80° C.
(§3) CD4^+ CEM cells, propagated in the same medium, were incubated for 60 minutes at 37° C. with diluted stock virus at MOI=1. Cells were washed three times with phosphate buffered saline and resuspended in the medium at 2 x 10^5 cells/ml. Various quantities of Compound II were added. Four days after infection, numbers of live cells were counted by trypan blue exclusion [Mitsuya, et al. Proc. Natl. Acad. Sci. 83:1911 (1986)]. At the same time, aliquots of cells were fixed with acetone and stained with antibodies from AIDS patients, followed by a second staining with fluorescein-conjugated goat anti-human IgG (Cappel). […]

[4] = test system: TAT; test: anti-TAT assay: SeAP reporter gene expression under control of HIV-LTR in COS cells co-transfected with TAT; assay type: cell-based; details: 1, 10 and 100 μM added 24 h post transfection, assayed 48 h later, three independent assays, values only in FIG. I
Text: FIG. I: Illustrates anti-TAT activity of Compound II. COS cells are co-transfected with TAT and Secreted Alkaline Phosphatase (SeAP) genes. The SeAP gene, under the control of the HIV-LTR (responsive to TAT activation) or the RSV-LTR (unresponsive to TAT action) serves as a monitor or reporter gene. SeAP activity in the HIV-LTR combination but not the RSV-LTR combination serves as a measure of TAT activity. Cells containing the RSV-LTR co-transfected gene combination serve as an indicator of the non-specific toxicity of added test compounds. The black bars represent the percent inhibition of SeAP activity by Compound II when the SeAP gene is under the control of HIV-LTR. The hatched bars represent the effect of […] on SeAP activity when the SeAP gene is regulated by RSV-LTR. […] The figure includes results from three separate assays.
Compound II was tested for anti-TAT activity in an anti-TAT assay described in copending patent application Case Docket No. 8320 filed on the same day as the instant application and hereby incorporated by reference. […] The anti-TAT activity is measured by the percent inhibition of SeAP gene expression under the control of HIV-LTR.

[5] = test system: HIV-1 NIT strain; test: inhibition of HIV-cytopathic effect in infected CD4+ CEM cells (live-cell count by trypan blue exclusion); assay type: cell-based; details: MOI=1, 4 days, values only in FIG. II
Protocol: as §1, §2, §3

SMILES	virustatic range (dose) [1]	nonspecific toxicity (effect on SeAP activity under RSV-LTR) [2]	inhibition of viral antigen production [3]	anti-TAT activity (inhibition of SeAP gene expression under HIV-LTR) [4]	inhibition of HIV-cytopathic effect [5]
Nc1ccn([C@H]2CC[C@@H](CO)O2)c(=O)n1 [ddC]	0.005-0.25 mg/kg body weight	–	–	–	–
NCC(=O)Nc1ccc(Cl)cc1C(=O)c1ccc[nH]1 [Compound II, 2-glycinamido-5-chlorophenyl (2-pyrryl) ketone]	–	does not exhibit nonspecific autotoxicity	inhibition of HIV-cytopathic effect and viral antigen production	exhibits anti-TAT activity; also recorded: specific inhibitor of TAT	inhibition of HIV-cytopathic effect
